Data on two compounds can be found in patent publication US20070015739A1, “Use of non-antibacterial tetracycline formulations for inhibiting bacterial spores” (priority 2005, published 2007).

“Also recorded” adds a separate entry of the source. Like-named read-outs stand apart in the source and are kept apart here.

Data set [1] is described as follows: Plasma or serum concentration in humans. The settings on record: dose of about 10 to about 20 mg/day.
Data set [2] relates to spores (Bacillus cereus ATCC 10987). It is filed as cell-based.
Data set [3] relates to Bacillus cereus ATCC 10987 spores. It is filed as cell-based.
In the next data set the test system is B. anthracis spores. Conditions: guinea pig, in vivo; cited from earlier work.

For the compound `NC(=O)C1=C(O)C[C@@H]2C[C@@H]3Cc4cccc(O)c4C(=O)C3=C(O)[C@]2(O)C1=O` [COL-3, 6-demethyl-6-deoxy-4-de(dimethylamino)tetracycline], the “plasma or serum concentrations” value in data set [1] was “about 1.0 μg/ml”. Further, in data set [2], the “early germination (Gram stain)” value was “occurred in both the presence and absence of COL-3”; the “minimum concentration to inhibit outgrowth” value was 1 μg per ml; the “outgrowth into vegetative cells” value is on record as “inhibited”. Further, the “development of spores into vegetative cells (Gram stain)” value in data set [2] (time=40 min) is listed as “no further development”. Besides, the “development of spores into vegetative cells (Gram stain)” value in data set [2] (time=60 min) is “do not develop”. For the same compound, the “rate of decrease in absorbance in the presence and absence of COL-3” value in data set [3] was “not significantly different”. The “inhibition of the early phase (initial stages) of germination” value in data set [3] (37° C.) is given as “did not inhibit; also recorded: no effect”.
For `CN(C)[C@@H]1C(O)=C(C(N)=O)C(=O)[C@@]2(O)C(O)=C3C(=O)c4c(O)cccc4[C@@](C)(O)[C@H]3C[C@@H]12` [tetracycline], the “death of infected animals during treatment” value with B. anthracis spores is listed as “prevented death”.
